# Data reported in patent US20050101595A1, “N-containing cycloalkyl-substituted amino-thiazole derivatives and pharmaceutical compositions for inhibiting cell proliferation and methods for their use” (PFIZER INC., priority 2003, published 2005).
# Like-named read-outs stand apart in the source and are kept apart here.
# Experiments:
# HCT-116 cell line = experiment: Inhibition of cell growth, tetrazolium salt (MTT) assay; format: cell-based; details: for IC50: Homo sapiens, HCT-116, 120 h, MTT, three to five days, read-out: HCT-116 IC50; for HCT-116 % Inhibition at 0.25 μM: 0.25 μM compound
# Outline: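 McCoy's 5A cultures; 4 h pre-incubation; compound dilutions in 0.5% v/v DMSO; 3–5 d, 37° C, 5% CO2; MTT 0.2 mg/mL final, 4 h; formazan dissolved in DMSO, A540; vs 0.5% DMSO vehicle.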
# CDK2/Cyclin A = CDK2/Cyclin A (Homo sapiens, UniProt P24941); experiment: Inhibition of CDK2/Cyclin A Retinoblastoma Kinase Activity; format: biochemical; details: for Ki: apparent Ki, CDK2/proteolyzed cyclin A, Rb fragment substrate, 25 μM ATP
# Outline: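 Baculovirus-expressed CDK2 complexed with proteolyzed cyclin A (10 or 19 nM), Rb fragment substrate, 25 μM [32P/33P]ATP, HEPES pH 7.4, 30 °C for 60 or 75 min under initial-rate conditions. Filter capture and phosphorimager readout; apparent Ki fitted to competitive or tight-binding competitive inhibition.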
# [1] = target: human CDK4 and genetically truncated (1-264) cyclin D3 (Homo sapiens, UniProt P11802); experiment: Inhibition of CDK4/Cyclin D Retinoblastoma Kinase Activity; format: biochemical; details: for Ki: apparent Ki, CDK4/truncated cyclin D3, Rb fragment substrate, 25 μM ATP
# Chain of human CDK4 and genetically truncated (1-264) cyclin D3 (P11802 whole entry, the tested form may be a part): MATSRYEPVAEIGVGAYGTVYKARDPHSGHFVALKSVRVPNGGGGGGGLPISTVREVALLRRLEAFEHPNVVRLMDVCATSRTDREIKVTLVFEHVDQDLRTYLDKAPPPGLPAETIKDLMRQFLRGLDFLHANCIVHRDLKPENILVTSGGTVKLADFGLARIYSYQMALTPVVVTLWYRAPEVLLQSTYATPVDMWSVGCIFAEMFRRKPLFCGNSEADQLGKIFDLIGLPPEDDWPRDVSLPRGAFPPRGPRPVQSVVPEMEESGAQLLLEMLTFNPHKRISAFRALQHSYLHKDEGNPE
# Chain of human CDK4 and genetically truncated (1-264) cyclin D3 (P30281 1-264 partner): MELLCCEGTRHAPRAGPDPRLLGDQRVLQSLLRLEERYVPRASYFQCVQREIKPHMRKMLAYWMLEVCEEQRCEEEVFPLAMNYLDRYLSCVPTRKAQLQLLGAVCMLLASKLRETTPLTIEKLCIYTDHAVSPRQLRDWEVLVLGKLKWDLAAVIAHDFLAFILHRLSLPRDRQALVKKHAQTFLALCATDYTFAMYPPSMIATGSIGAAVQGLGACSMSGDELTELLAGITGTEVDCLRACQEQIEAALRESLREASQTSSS
# Outline: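 Human CDK4/truncated cyclin D3 (1-264) complex from baculovirus-infected insect cells, 5 nM, phosphorylating Rb fragment (residues 386-928, His-tagged) with 25 μM [32/33P]ATP in HEPES pH 7.4, MgCl2, 2% DMSO at 30° C. for 20 min (60 min for tight binders). Filter-captured radioactivity by phosphorimager; apparent Ki from competitive or tight-binding fits.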
# [2] = 0.1 μM compound, HCT-116, Table 3
# [3] = 0.1 μM compound, HCT-116, Table 4
smiles,measurement,setting,value
C[C@@H]1CN(CCc2ccc(S(=O)(=O)N3CCC(Nc4nc(N)c(C(=O)c5c(F)cccc5F)s4)CC3)cn2)C[C@H](C)N1 [Example N8],IC50,HCT-116 cell line; first HCT-116 column (c4),1300 nM
same,IC50,HCT-116 cell line; second HCT-116 column (c5),5000 nM
same,Ki,CDK2/Cyclin A,1.1 nM
same,Ki,[1],0.32 nM
"Nc1nc(NC2CCN(S(=O)(=O)c3ccc(N4CC[S+]([O-])CC4)nc3)CC2)sc1C(=O)c1c(F)cccc1F [Example G4, 1-(4-Amino-2-{1-[6-(1-oxo-thiomorpholine-4-yl)-pyridine-3-sulfonyl]-piperidin-4-ylamino}-thiazol-5-yl)-1-(2,6-difluoro-phenyl)-methanone]",IC50,HCT-116 cell line; first HCT-116 column (c4),1500 nM
same,IC50,HCT-116 cell line; second HCT-116 column (c5),5000 nM
same,Ki,CDK2/Cyclin A,1.4 nM
same,Ki,[1],0.94 nM
Nc1nc(NC2CCN(S(=O)(=O)c3cccc4ccccc34)CC2)sc1C(=O)c1c(F)cccc1F [Example P1],HCT-116 % Inhibition at 0.1 μM,HCT-116 cell line; [2],9%
same,HCT-116 % Inhibition at 0.25 μM,"HCT-116 cell line; HCT-116, Table 3",32%
same,CDK2 % Inhibition at 0.03 μM,"CDK2/Cyclin A; 0.03 μM compound, Table 3",45%
same,CDK4 % Inhibition at 0.03 μM,"[1]; 0.03 μM compound, Table 3",51%
Nc1nc(NC2CCN(C(=O)c3ccc(Br)cc3)CC2)sc1C(=O)c1c(F)cccc1F [Example D11],IC50,HCT-116 cell line; first HCT-116 column (c4),720 nM
same,IC50,HCT-116 cell line; second HCT-116 column (c5),1800 nM
same,Ki,CDK2/Cyclin A,81 nM
same,Ki,[1],31 nM
Nc1nc(NC2CCN(C(=O)Nc3ccccc3F)CC2)sc1C(=O)c1c(F)cccc1F [Example O5],HCT-116 % Inhibition at 0.25 μM,"HCT-116 cell line; HCT-116, Table 2",31%
same,CDK2 % Inhibition At 0.03 μM,"CDK2/Cyclin A; 0.03 μM compound, Table 2",35%
same,CDK4 % Inhibition at 0.03 μM,"[1]; 0.03 μM compound, Table 2",3%
Nc1nc(NC2CCN(C(=O)c3cccc(Br)c3)CC2)sc1C(=O)c1c(F)cccc1F [Example Q18],HCT-116 % Inhibition at 0.1 μM,HCT-116 cell line; [3],59%
same,HCT-116 % Inhibition at 0.25 μM,"HCT-116 cell line; HCT-116, Table 4",92%
same,CDK2 % Inhibition at 0.03 μM,"CDK2/Cyclin A; 0.03 μM compound, Table 4",44%
same,CDK4 % Inhibition at 0.03 μM,"[1]; 0.03 μM compound, Table 4",73%
CCOC(=O)C(=O)N1CCC(Nc2nc(N)c(C(=O)c3c(F)cccc3F)s2)CC1 [Example Q39],HCT-116 % Inhibition at 0.1 μM,HCT-116 cell line; [3],0%
same,HCT-116 % Inhibition at 0.25 μM,"HCT-116 cell line; HCT-116, Table 4",25%
same,CDK2 % Inhibition at 0.03 μM,"CDK2/Cyclin A; 0.03 μM compound, Table 4",−13%
same,CDK4 % Inhibition at 0.03 μM,"[1]; 0.03 μM compound, Table 4",17%
"Nc1nc(NC2CCN(Cc3ccccc3)CC2)sc1C(=O)c1c(F)cccc1F [Example A3, 1-[4-Amino-2-(1-benzyl-piperidin-4-ylamino)-thiazol-5-yl]-1-(2,6-difluoro-phenyl)-methanone]",IC50,HCT-116 cell line; first HCT-116 column (c4),1700 nM
same,IC50,HCT-116 cell line; second HCT-116 column (c5),3100 nM
same,Ki,CDK2/Cyclin A,490 nM
same,Ki,[1],130 nM
"Nc1ccc(S(=O)(=O)N2CCC(Nc3nc(N)c(C(=O)c4c(F)cccc4F)s3)CC2)cn1 [Example G8, 1-{4-Amino-2-[1-(6-amino-pyridine-3-sulfonyl)-piperidin-4-ylamino]-thiazol-5-yl}-1-(2,6-difluoro-phenyl)-methanone]",IC50,HCT-116 cell line; first HCT-116 column (c4),590 nM
same,IC50,HCT-116 cell line; second HCT-116 column (c5),2200 nM
same,Ki,CDK2/Cyclin A,0.6 nM
same,Ki,[1],1.9 nM
CCC(Oc1ccccc1)C(=O)N1CCC(Nc2nc(N)c(C(=O)c3c(F)cccc3F)s2)CC1 (stereo not shown) [Example R162],HCT-116 % Inhibition at 0.1 μM,"HCT-116 cell line; HCT-116 cells, at 0.1 μM",0%
same,HCT-116 5 Inhibition at 0.25 μM,HCT-116 cell line; HCT-116 cells,34
same,CDK2 % Inhibition at 0.03 μM,CDK2/Cyclin A; at 0.03 μM,27%
same,CDK4 % Inhibition at 0.03 μM,[1]; at 0.03 μM,32%
Nc1nc(NC2CCN(C(=O)C3CCC3)CC2)sc1C(=O)c1c(F)cccc1F [Example Q56],HCT-116 % Inhibition at 0.1 μM,HCT-116 cell line; [3],0%
same,HCT-116 % Inhibition at 0.25 μM,"HCT-116 cell line; HCT-116, Table 4",35%
same,CDK2 % Inhibition at 0.03 μM,"CDK2/Cyclin A; 0.03 μM compound, Table 4",12%
same,CDK4 % Inhibition at 0.03 μM,"[1]; 0.03 μM compound, Table 4",14%
Nc1nc(NC2CCN(C(=O)c3cccc(Cl)c3)CC2)sc1C(=O)c1c(F)cccc1F [Example R132],HCT-116 % Inhibition at 0.1 μM,"HCT-116 cell line; HCT-116 cells, at 0.1 μM",15%
same,HCT-116 5 Inhibition at 0.25 μM,HCT-116 cell line; HCT-116 cells,60
same,CDK2 % Inhibition at 0.03 μM,CDK2/Cyclin A; at 0.03 μM,28%
same,CDK4 % Inhibition at 0.03 μM,[1]; at 0.03 μM,55%
COc1ccc(S(=O)(=O)N2CCC(Nc3nc(N)c(C(=O)c4c(F)cccc4F)s3)CC2)cc1OC [Example P38],HCT-116 % Inhibition at 0.1 μM,HCT-116 cell line; [2],15%
same,HCT-116 % Inhibition at 0.25 μM,"HCT-116 cell line; HCT-116, Table 3",35%
same,CDK2 % Inhibition at 0.03 μM,"CDK2/Cyclin A; 0.03 μM compound, Table 3",73%
same,CDK4 % Inhibition at 0.03 μM,"[1]; 0.03 μM compound, Table 3",74%
Nc1nc(NC2CCN(S(=O)(=O)c3ccccc3)CC2)sc1C(=O)c1c(F)cccc1F [Example P8],HCT-116 % Inhibition at 0.1 μM,HCT-116 cell line; [2],37%
same,HCT-116 % Inhibition at 0.25 μM,"HCT-116 cell line; HCT-116, Table 3",33%
same,CDK2 % Inhibition at 0.03 μM,"CDK2/Cyclin A; 0.03 μM compound, Table 3",73%
same,CDK4 % Inhibition at 0.03 μM,"[1]; 0.03 μM compound, Table 3",72%
